Laboratory results from patent US20110028447A1, “INDAZOLE DERIVATIVES” (Pfizer Inc., priority 2008, published 2011).
Like-named read-outs stand apart in the source and are kept apart here.

How the values were obtained:
human CB1 receptor [1] = target: T1, human CB1 receptor (Homo sapiens, UniProt P21554); experiment: [35S] GTPγS binding on membranes of CHO cells expressing the human CB1 receptor (agonism); format: biochemical; parameters: expressed in transfected cells; membrane preparation
Procedure: Membrane preparation: CHO cells expressing the human CB1 receptor were grown to 80% confluence in Ham's F-12 Nutrient Medium (Invitrogen) containing 10% fetal bovine serum (Invitrogen), 1% pen/strep (Invitogen), 1% Nonessential amino acids (Invitrogen) and 500 μg/ml G418 (Invitrogen). Cells were released from flasks using Cell Dissociation Buffer (Invitrogen). Cells were pelleted by centrifugation at 500×G for 5 minutes. Membranes were prepared by resuspending cells in ice cold Assay Buffer (25 mM Tris pH 7.4, 5 mM EDTA, 5 mM EGTA, Complete Protease Inhibitor (Roche)). Cells were lysed with 12 strokes of a dounce homogenizer. Unlysed cells were pelleted by centrifugation at 500×G for 5 minutes. Membranes were pelleted by centrifugation at 25,000×G for 30 minutes. Membranes were resuspended in TEE, dounced 12 strokes, and pelleted a second time at 25,000×G for 30 minutes. Membrane pellet was resuspended in 50 mM Tris pH 7.4, 100 mM NaCl, 3 mM MgCl2, 0.2 mM EGTA, Complete Protease Inhibitor (Roche). Protein concentration was determined using the Micro-BCA Protein Assay Kit (Pierce) using BSA as a standard. Membranes were frozen and stored at −80 degrees Celsius until use.
GTPγS Binding: 40 μl of test compound was incubated with 20 μl of [^35S] GTPγS (Perkin Elmer) (1250 Ci/millimole) and 140 μl of membrane homogenate (5 μg/well) in polypropylene 96-well plates (Corning). Final reaction conditions were 50 mM Tris pH 7.4, 100 mM NaCl, 3 mM MgCl2, 0.2 mM EGTA, 0.04% BSA. After incubation at 37 degrees Celsius for 45 minutes reactions were harvested by vacuum filtration through Unifilter GF/B-96 filters (Perkin Elmer) using a FilterMate Plate Harvester (Perkin Elmer). Filters were rinsed 4 times with ice cold 50 mM Tris pH 7.4, 3 mM MgCl2, 0.2 mM EGTA and dried at 50 degrees Celsius for at least 30 minutes. 40 μl of Microscint-20 (Perkin Elmer) was added per well, and plates were counted using a Top-Count Microplate Scintillation Counter (Perkin Elmer). Binding data were analyzed and EC50 values were calculated using Graph Pad Prism 4.0 Software.

human CB1 receptor [2] = target: T1, human CB1 receptor; experiment: Human CB1 receptor binding, [3H] CP-55,940 displacement on HEK cell membranes; parameters: expressed in transfected cells; host or cells: HEK cells, doxycycline-induced; membrane preparation
Procedure, shortened: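 Membranes from doxycycline-induced HEK cells expressing human CB1 incubated 60 min at room temperature with [3H] CP-55,940 (final […]) in 50 mM Tris pH 7.4, 100 mM NaCl, 3 mM MgCl2, 0.2 mM EGTA, 0.04% BSA. Nonspecific binding defined with 50 μM WIN-55,212-2; filtration and scintillation counting gave EC50 and Ki.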

[3] = GTPγS EC50, human CB1, CHO cell membranes
[4] = human CB1, CHO cell membranes, read-out: GTPγS EC50

T1 sequence (P21554 whole entry): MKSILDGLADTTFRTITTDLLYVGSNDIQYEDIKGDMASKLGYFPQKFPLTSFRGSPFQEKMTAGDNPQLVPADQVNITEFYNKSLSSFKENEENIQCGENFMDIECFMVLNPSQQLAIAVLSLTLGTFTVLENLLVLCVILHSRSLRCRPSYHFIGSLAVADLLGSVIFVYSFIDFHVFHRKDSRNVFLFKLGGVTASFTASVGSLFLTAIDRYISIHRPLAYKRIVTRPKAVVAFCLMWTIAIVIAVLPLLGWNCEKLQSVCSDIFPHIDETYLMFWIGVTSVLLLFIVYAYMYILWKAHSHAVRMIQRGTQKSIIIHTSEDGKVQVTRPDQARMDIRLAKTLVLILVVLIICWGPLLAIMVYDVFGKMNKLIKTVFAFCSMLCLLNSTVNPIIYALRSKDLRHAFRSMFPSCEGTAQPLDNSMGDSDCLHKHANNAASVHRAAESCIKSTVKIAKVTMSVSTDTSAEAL

| SMILES | EC50 (human CB1 receptor [1]; [3]) [nM] | Ki (human CB1 receptor [2]; CB1 Ki) [nM] | EC50 (human CB1 receptor [1]; [4]) [nM] | Ki (human CB1 receptor [2]; read-out: CB1 Ki) [nM] |
| --- | --- | --- | --- | --- |
| CC(C)(C)C(NC(=O)c1nn(Cc2ccc(F)cc2)c2ccccc12)C(=O)NC1(CO)CC1 (stereo not drawn) [Example 160] | 32.3 | 1.45 | – | – |
| CC(C)(C)C(NC(=O)c1nn(Cc2ccc(C#N)cc2)c2ccc(F)cc12)C(N)=O (stereo not drawn) [Example 163] | 180 | 4.45 | – | – |
| CC(C)(C)C(NC(=O)c1nn(Cc2ccc(C#N)cc2)c2ccc(F)cc12)C(=O)NCCO (stereo not drawn) [Example 166] | 132 | 5.14 | – | – |
| CC(C)(C)C(NC(=O)c1nn(Cc2ccc(F)cc2)c2ccc(F)cc12)C(N)=O (stereo not drawn) [Example 170] | 0.7 | 0.27 | – | – |
| CC(C)(C)C(NC(=O)c1nn(Cc2ccc(F)cc2)c2ccc(F)cc12)C(=O)NC1CC1 (stereo not drawn) [Example 171] | 0.44 | 0.42 | – | – |
| CC(C)(C)C(NC(=O)c1nn(Cc2ccc(F)cc2)c2ccc(F)cc12)C(=O)NCCO (stereo not drawn) [Example 172] | 0.42 | 0.42 | – | – |
| CC(C)(C)C(NC(=O)c1nn(Cc2ccc(F)cc2)c2ccc(F)cc12)C(=O)NCC(N)=O (stereo not drawn) [Example 173] | 5.12 | 2.37 | – | – |
| CC(C)(C)C(NC(=O)c1nn(Cc2ccc(F)cc2)c2ccc(F)cc12)C(=O)NCCCO (stereo not drawn) [Example 174] | 1.81 | 1.1 | – | – |
| CC(C)(C)C(NC(=O)c1nn(Cc2ccc(F)cc2)c2c(F)cccc12)C(N)=O (stereo not drawn) [Example 175] | 0.64 | 0.19 | – | – |
| CC(C)(C)C(NC(=O)c1nn(Cc2ccc(F)cc2)c2c(F)cccc12)C(=O)NC1CC1 (stereo not drawn) [Example 176] | 0.51 | 0.22 | – | – |
| CC(C)(C)C(NC(=O)c1nn(Cc2ccc(F)cc2)c2c(F)cccc12)C(=O)NCCO (stereo not drawn) [Example 177] | 0.31 | 0.28 | – | – |
| CC(C)(C)C(NC(=O)c1nn(Cc2ccc(F)cc2)c2c(F)cccc12)C(=O)NCCCO (stereo not drawn) [Example 178] | 1.61 | 0.56 | – | – |
| CC(C)(C)C(NC(=O)c1nn(Cc2ccc(F)cc2)c2c(F)cccc12)C(=O)NCC(N)=O (stereo not drawn) [Example 179] | 5.41 | 0.87 | – | – |
| CC(C)(C)C(NC(=O)c1nn(Cc2ccc(F)cc2)c2c(F)cccc12)C(=O)NCc1nnc(C(N)=O)o1 (stereo not drawn) [Example 180] | – | – | 3.81 | 0.37 |
| CC(C)(C)C(NC(=O)c1nn(Cc2ccc(F)cc2)c2c(Cl)cccc12)C(N)=O (stereo not drawn) [Example 181] | 0.33 | 0.1 | – | – |
| CC(C)(C)C(NC(=O)c1nn(Cc2ccc(F)cc2)c2c(Cl)cccc12)C(=O)NC1CC1 (stereo not drawn) [Example 182] | 2.23 | 0.34 | – | – |
| CC(C)(C)C(NC(=O)c1nn(Cc2ccc(F)cc2)c2c(Cl)cccc12)C(=O)NCCO (stereo not drawn) [Example 183] | 0.83 | 0.26 | – | – |
| CC(C)(C)C(NC(=O)c1nn(Cc2ccc(F)cc2)c2c(Cl)cccc12)C(=O)NCCCO (stereo not drawn) [Example 184] | 3.94 | 0.37 | – | – |
| CC(C)(C)C(NC(=O)c1nn(Cc2ccc(F)cc2)c2c(Cl)cccc12)C(=O)NCC(N)=O (stereo not drawn) [Example 185] | 10.2 | 0.51 | – | – |
| CC(C)(C)C(NC(=O)c1nn(Cc2ccc(F)cc2)c2c(F)cccc12)C(=O)NCCNS(=O)(=O)C1CC1 (stereo not drawn) [Example 186] | – | – | 1.03 | 0.19 |
| CC(C)(C)[C@H](NC(=O)c1nn(Cc2ccc(F)cc2)c2c(Cl)cccc12)C(=O)NCCNS(=O)(=O)C1CC1 [Example 187] | – | – | 1.09 | 0.09 |
| CC(C)(C)C(NC(=O)c1nn(Cc2ccc(C#N)cc2)c2c(Cl)cccc12)C(=O)NC1CC1 (stereo not drawn) [Example 198] | 7.07 | 1.19 | – | – |
| CC(C)(C)C(NC(=O)c1nn(Cc2ccc(C#N)cc2)c2c(Cl)cccc12)C(=O)NCCO (stereo not drawn) [Example 199] | 8.94 | 1.32 | – | – |

| SMILES | EC50 (human CB1 receptor [1]; [3]) [nM] | Ki (human CB1 receptor [2]; CB1 Ki) [nM] | EC50 (human CB1 receptor [1]; [4]) [nM] | Ki (human CB1 receptor [2]; read-out: CB1 Ki) [nM] |
| --- | --- | --- | --- | --- |
| CC(C)(C)C(NC(=O)c1nn(Cc2ccc(C#N)cc2)c2c(Cl)cccc12)C(=O)NCCCO (stereo not drawn) [Example 200] | 35 | 4.8 | – | – |
| CC(C)(C)C(NC(=O)c1nn(Cc2ccc(C#N)cc2)c2c(Cl)cccc12)C(=O)NCC(N)=O (stereo not drawn) [Example 201] | 70.1 | 14.2 | – | – |
| CC(C)(C)C(NC(=O)c1nn(Cc2ccc(C#N)cc2)c2c(Cl)cccc12)C(=O)NCCNS(=O)(=O)C1CC1 (stereo not drawn) [Example 202] | – | – | 3.07 | 0.8 |
| CC(C)(C)C(NC(=O)c1nn(Cc2ccc(C#N)cc2)c2c(Cl)cccc12)C(=O)NCC(O)CO (stereo not drawn) [Example 203] | 63.2 | 10.2 | – | – |
| CC(C)(C)[C@H](NC(=O)c1nn(Cc2ccc(F)cc2)c2ccccc12)C(=O)NCC1CCOCC1 [Example 211] | 18.3 | 3.08 | – | – |
| CC(C)(C)[C@H](NC(=O)c1nn(Cc2ccc(C#N)cc2)c2c(F)cccc12)C(=O)N1Cc2ccccc2C1 [Example 213] | – | – | 57.7 | 15.7 |
| CC(C)(C)[C@H](NC(=O)c1nn(Cc2ccc(C#N)cc2)c2c(F)cccc12)C(=O)N1CC(O)C1 [Example 214] | 23.4 | 3.87 | – | – |
| CC(C)(C)[C@H](NC(=O)c1nn(Cc2ccc(C#N)cc2)c2c(F)cccc12)C(=O)N[C@@H](CO)c1ccccc1 [Example 215] | – | – | 41.3 | 7.69 |
| CC(C)(C)[C@H](NC(=O)c1nn(Cc2ccc(F)cc2)c2ccccc12)C(=O)NCc1nn[nH]n1 [Example 218] | 360 | 7.92 | – | – |
| CC(C)(C)[C@H](NC(=O)c1nn(Cc2ccc(F)cc2)c2ccccc12)C(=O)N1CCN(C(N)=O)CC1 [Example 220] | – | – | 3.78 | 1.26 |
| CC(C)(C)[C@H](NC(=O)c1nn(Cc2ccc(F)cc2)c2ccccc12)C(=O)N1CCC(CO)CC1 [Example 223] | 4.76 | 1.12 | – | – |
| CC(C)(C)[C@H](NC(=O)c1nn(Cc2ccc(F)cc2)c2ccccc12)C(=O)N1CCC(CCO)CC1 [Example 224] | – | – | 19.3 | 6.77 |
| CC(C)(C)[C@H](NC(=O)c1nn(Cc2ccc(F)cc2)c2ccccc12)C(=O)N1CCC(C(N)=O)CC1 [Example 225] | – | – | 26.9 | 6.3 |
| CC(C)(C)[C@H](NC(=O)c1nn(Cc2ccc(F)cc2)c2c(Cl)cc(Cl)cc12)C(N)=O [Example 226] | 0.73 | 0.18 | – | – |
| CC(C)(C)[C@H](NC(=O)c1nn(Cc2ccc(F)cc2)c2ccccc12)C(=O)N1CCN(C(=O)CCC(N)=O)CC1 [Example 228] | – | – | 15.1 | 4.26 |
| CC(C)(C)[C@H](NC(=O)c1nn(Cc2ccc(F)cc2)c2ccccc12)C(=O)N[C@@H](CO)C(N)=O [Example 230] | 31.4 | 6.5 | – | – |
| CC(C)(C)[C@H](NC(=O)c1nn(Cc2ccc(F)cc2)c2ccccc12)C(=O)NCCc1nnc(C(N)=O)o1 [Example 231] | – | – | 5.12 | 2.25 |
| CC(C)(C)[C@H](NC(=O)c1nn(Cc2ccc(F)cc2)c2ccccc12)C(=O)N1CCN(CC(O)CO)CC1 (stereo partly drawn) [Example 233] | – | – | 11.5 | 2.45 |
| COC(=O)[C@@H](CO)NC(=O)[C@@H](NC(=O)c1nn(Cc2ccc(F)cc2)c2ccccc12)C(C)(C)C [Example 234] | 36.1 | 13.4 | – | – |
| COC(=O)[C@H](CO)NC(=O)[C@@H](NC(=O)c1nn(Cc2ccc(F)cc2)c2ccccc12)C(C)(C)C [Example 236] | 3.91 | 0.94 | – | – |
| COC(=O)[C@@H](O)CNC(=O)[C@@H](NC(=O)c1nn(Cc2ccc(F)cc2)c2ccccc12)C(C)(C)C [Example 238] | 25.7 | 6.46 | – | – |
| CC(C)(C)[C@H](NC(=O)c1nn(Cc2ccc(F)cc2)c2ccccc12)C(=O)NC(CO)CO [Example 241] | 5.72 | 1.65 | – | – |
